Measured values reported in patent publication US20210382058A1, “PATIENT SELECTION FOR TREATMENT OF MYC POSITIVE CANCERS WITH INDENOISOQUINOLINES” (Purdue Research Foundation, priority 2020, published 2021).
Like-named read-outs stand apart in the source and are kept apart here.

What was measured:
NCI-60 cancer cell lines = assay: NCI-60 cancer cell line drug screen (GI50, MGM); assay type: cell-based, human; settings: Homo sapiens; for GI50: read-out: Antiproliferative Activities [GI50 (μM)]
Description: Cancer cells were incubated with the test compounds at five concentrations ranging from 100 μM to 10 nM for 48 h. […] The approximate average of GI50 values across the entire panel of NCI-60 cancer cell lines for each compound was recorded as the MGM value.

human topoisomerase I = target: T1, human topoisomerase I (Homo sapiens, UniProt P11387); settings: relative topoisomerase I inhibition levels, previously determined, six levels (0 - 5, +++++ = 5); cited from earlier work
T1 sequence (P11387 1-765): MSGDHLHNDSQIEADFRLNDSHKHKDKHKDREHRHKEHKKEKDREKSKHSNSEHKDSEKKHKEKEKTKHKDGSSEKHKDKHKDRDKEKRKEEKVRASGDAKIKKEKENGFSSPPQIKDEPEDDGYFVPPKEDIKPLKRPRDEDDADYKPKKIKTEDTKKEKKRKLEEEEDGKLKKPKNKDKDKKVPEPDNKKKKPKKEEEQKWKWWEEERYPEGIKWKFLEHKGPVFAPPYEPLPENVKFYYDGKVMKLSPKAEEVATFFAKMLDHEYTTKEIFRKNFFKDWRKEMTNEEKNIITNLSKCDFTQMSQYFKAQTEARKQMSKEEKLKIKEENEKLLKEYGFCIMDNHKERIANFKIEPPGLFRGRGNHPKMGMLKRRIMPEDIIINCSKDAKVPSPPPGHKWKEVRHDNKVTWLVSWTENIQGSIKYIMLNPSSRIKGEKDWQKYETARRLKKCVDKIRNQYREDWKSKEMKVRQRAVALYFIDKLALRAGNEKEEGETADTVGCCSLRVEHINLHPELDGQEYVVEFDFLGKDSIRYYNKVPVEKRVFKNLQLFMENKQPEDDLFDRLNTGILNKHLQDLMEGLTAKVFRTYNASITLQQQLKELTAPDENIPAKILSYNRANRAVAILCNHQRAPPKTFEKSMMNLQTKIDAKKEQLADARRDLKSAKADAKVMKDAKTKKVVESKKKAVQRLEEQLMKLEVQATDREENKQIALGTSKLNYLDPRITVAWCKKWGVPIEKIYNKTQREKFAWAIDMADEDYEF

[1] = tested on: MYC protein expression in MCF-7 breast cancer cells; assay: Western blotting of MYC protein level in MCF-7 cells; assay type: cell-based, human; settings: Homo sapiens, MCF7; western blotting, MCF-7 cells, 0.5, 1, 2, and 4 μM, 24 hours; read-out: MYC Inhibition
Outline: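 MCF-7 cells were exposed to compounds at 0.5, 1, 2 and 4 μM for 24 hours at 37° C. MYC was detected by immunoblot with ECL, using rabbit anti-MYC (1:1000) and anti-GAPDH (1:2000) as loading control.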

For `COc1cc2c(cc1O)-c1c(c3ccc([N+](=O)[O-])cc3c(=O)n1CCCn1ccnc1)C2=O` [Compound 37], the GI50 (NCI-60 cancer cell lines; 786-0, Renal Cancer, 786-0) was 0.33 µM, the GI50 (NCI-60 cancer cell lines; ACHN, Renal Cancer, ACHN) was 0.31 µM and the GI50 (NCI-60 cancer cell lines; BT-549, Breast Cancer, BT-549) was 0.35 µM. The GI50 (NCI-60 cancer cell lines; CAKI-1, Renal Cancer, CAKI-1) was 0.22 µM, the GI50 (NCI-60 cancer cell lines; CCRF-CEM, Leukemia, CCRF-CEM) was 0.66 µM and the GI50 (NCI-60 cancer cell lines; COLO 205, Colon Cancer, COLO 205) was 7.9 µM. For the same molecule, the GI50 (NCI-60 cancer cell lines; DU-145, Prostate Cancer, DU-145) was 0.33 µM, the GI50 (NCI-60 cancer cell lines; HCC 2998, Colon Cancer, HCC-2998) was 37.1 µM and the GI50 (NCI-60 cancer cell lines; HCT-15, Colon Cancer, HCT-15) was > 100 µM. For the same molecule, the GI50 (NCI-60 cancer cell lines; HCT-116, Colon Cancer, HCT-116) was 0.74 µM, the GI50 (NCI-60 cancer cell lines; HL-60, Leukemia, HL-60(TB)) was 0.59 µM and the GI50 (NCI-60 cancer cell lines; HOP-62, Non-Small Cell Lung Cancer, HOP-62) was 0.59 µM. The GI50 (NCI-60 cancer cell lines; HOP-92, Non-Small Cell Lung Cancer, HOP-92) was 13.6 µM, the GI50 (NCI-60 cancer cell lines; HT-29, Colon Cancer, HT29) was 4.08 µM and the GI50 (NCI-60 cancer cell lines; Hs-578T, Breast Cancer, HS 578T) was > 100 µM. For the same molecule, the GI50 (NCI-60 cancer cell lines; IGROV-1, Ovarian Cancer, IGROV1) was 11.3 µM, the GI50 (NCI-60 cancer cell lines; K562, Leukemia, K-562) was 2.25 µM and the GI50 (NCI-60 cancer cell lines; KM12, Colon Cancer, KM12) was 9.39 µM. For the same molecule, the GI50 (NCI-60 cancer cell lines; LOX IMVI, Melanoma, LOX IMVI) was 0.3 µM, the GI50 (NCI-60 cancer cell lines; Leukemia, SR) was 0.03 µM and the GI50 (NCI-60 cancer cell lines; MCF7, Breast Cancer, MCF7) was 0.08 µM. The GI50 (NCI-60 cancer cell lines; MDA-MB-231, Breast Cancer, MDA-MB-231/ATCC) was 18.1 µM, the GI50 (NCI-60 cancer cell lines; MDA-MB-435, Melanoma, MDA-MB-435) was 2.84 µM and the GI50 (NCI-60 cancer cell lines; MOLT-4, Leukemia, MOLT-4) was 0.24 µM. It also gave a GI50 (NCI-60 cancer cell lines; Malme-3M, Melanoma, MALME-3M) of 1.79 µM, a GI50 (NCI-60 cancer cell lines; NCI-H23, Non-Small Cell Lung Cancer, NCI-H23) of 0.68 µM and a GI50 (NCI-60 cancer cell lines; NCI-H322M, Non-Small Cell Lung Cancer, NCI-H322M) of 72.6 µM. The GI50 (NCI-60 cancer cell lines; NCI-H460, Non-Small Cell Lung Cancer, NCI-H460) was 0.24 µM, the GI50 (NCI-60 cancer cell lines; NCI-H522, Non-Small Cell Lung Cancer, NCI-H522) was 0.1 µM and the GI50 (NCI-60 cancer cell lines; OVCAR-3, Ovarian Cancer, OVCAR-3) was 1.35 µM. The GI50 (NCI-60 cancer cell lines; OVCAR-4, Ovarian Cancer, OVCAR-4) was 1.41 µM, the GI50 (NCI-60 cancer cell lines; OVCAR-5, Ovarian Cancer, OVCAR-5) was > 100 µM and the GI50 (NCI-60 cancer cell lines; OVCAR-8, Ovarian Cancer, OVCAR-8) was 0.89 µM. For the same molecule, the GI50 (NCI-60 cancer cell lines; Ovarian Cancer, NCl/ADR-RES) was > 100 µM, the GI50 (NCI-60 cancer cell lines; Prostate Cancer, PC-3) was 7.22 µM and the GI50 (NCI-60 cancer cell lines; RPMI-8226, Leukemia, RPMI-8226) was 0.7 µM. For the same molecule, the GI50 (NCI-60 cancer cell lines; RXF 393, Renal Cancer, RXF 393) was 1.35 µM, the GI50 (NCI-60 cancer cell lines; SF-268, CNS Cancer, SF-268) was 0.27 µM and the GI50 (NCI-60 cancer cell lines; SF-295, CNS Cancer, SF-295) was 0.33 µM. For the same molecule, the GI50 (NCI-60 cancer cell lines; SF-539, CNS Cancer, SF-539) was 0.37 µM, the GI50 (NCI-60 cancer cell lines; SK-MEL-2, Melanoma, SK-MEL-2) was 30.8 µM and the GI50 (NCI-60 cancer cell lines; SK-MEL-5, Melanoma, SK-MEL-5) was 1.67 µM. For the same molecule, the GI50 (NCI-60 cancer cell lines; SK-MEL-28, Melanoma, SK-MEL-28) was 16.4 µM, the GI50 (NCI-60 cancer cell lines; SK-OV-3, Ovarian Cancer, SK-OV-3) was 0.56 µM and the GI50 (NCI-60 cancer cell lines; SN12C, Renal Cancer, SN12C) was 0.42 µM. For the same molecule, the GI50 (NCI-60 cancer cell lines; SNB-19, CNS Cancer, SNB-19) was 12.8 µM, the GI50 (NCI-60 cancer cell lines; SNB-75, CNS Cancer, SNB-75) was 2.97 µM and the GI50 (NCI-60 cancer cell lines; SW-620, Colon Cancer, SW-620) was 0.81 µM. The GI50 (NCI-60 cancer cell lines; T47D, Breast Cancer, T-47D) was 12 µM, the GI50 (NCI-60 cancer cell lines; TK-10, Renal Cancer, TK-10) was 2.54 µM and the GI50 (NCI-60 cancer cell lines; U-251, CNS Cancer, U251) was 0.27 µM. It also gave a GI50 (NCI-60 cancer cell lines; UACC-62, Melanoma, UACC-62) of 0.21 µM, a GI50 (NCI-60 cancer cell lines; UACC-257, Melanoma, UACC-257) of 25.3 µM and a mean GI50 across NCI-60 panel (MGM) (NCI-60 cancer cell lines; average of GI50 values across the entire panel of NCI-60 cancer cell lines) of 1860 nM. For the same molecule, the “Top1 Inhibiton” value (human topoisomerase I) was “++ (medium inhibition, ++, MYC expression inhibited at 2.0 μM, or no clear dose-dependent MYC inhibition)” and the minimal effective concentration [1] was 0.5 to 1 µM.
